Laboratory results published in patent publication US20130237602A1, “VALPROIC ACID DRUG DELIVERY SYSTEMS AND INTRAOCULAR THERAPEUTIC USES THEREOF” (ALLERGAN, INC., priority 2009, published 2013).

How the values were obtained:
visual system = details: systemic administration to mammals (Goto et al. 2003, rats); cited from earlier work
[1] = test system: Sod1tm1Leb/J mouse retina; assay type: in vivo, mice; details: 250 mg/kg IP once daily from three days before paraquat; 0.75 mM intravitreal paraquat; ERG days 1 and 7; n=4
Source text: In furtherance of the in vitro results of Example 1 we carried out an in vivo experiment examining the ability of valproic acid to protect against oxidative insult (oxidative stress) to mammalian retina. We used a murine model in which oxidative stress is induced by pre-dosing with intravitreal paraquat in Sod1^tm1Leb/J mouse model (as set forth in Dong A., et al., Superoxide Dismutase 1 Protects Retinal Cells From Oxidative Damage, J Cell Physio 208:516-526, 2006).
C57BL6 mice heterozygous from the SOD1 gene were obtained from Jackson labs (strain B6;129S7-Sod1tm1Leb/J). The mice were 3-4 months of age at the time of the experiment. […]
ERG recording were measured on dark adapted animals on days 1 and 7 post paraquat injection using an Espion ERG Diagnosys system and Burian-Allen electrodes, 3.0 mm diameter from LKC Technologies, Inc. For ERG recordings mice were anesthetized with ketamine (100 mg/kg) plus xylazine (50 mg/kg) administered IP and pupils dilated with 1% Akpentolate (cyclopentolate hydrochloride) and 10% AK-Dilate (phenylephrine hydrochloride). […] Scotopic ERGs were recorded using a 0.001, 0.01, and 1 cd·s/m2 flash as well as a 20 Hz flicker with the animal on a heating pad. A-wave, B-wave amplitudes were then calculated and statistically significant changes between valproic treated and non-treated animals determined using T test, n=4.

[2] = cited from earlier work

Row | Structure (SMILES) | effect on ERG a- and b-wave amplitudes and VEP (visual system) | effect on paraquat induced decrease in ERG B-wave amplitude [1] | water solubility [2]
1 | CCCC(CCC)C(=O)O [valproic acid, 2-propylpentanoic acid] | suppress ERG a- and b-wave amplitudes as well as VEP | significantly inhibited paraquat induced decrease in B-wave amplitude | 
2 | CCCC(CCC)C(=O)[O-].[Na+] [sodium valproate] |  |  | highly water soluble
